From ChEMBL document CHEMBL3120142 (J Med Chem, 2014)
Values after ≈ are worked out from the molar mass of the structure shown. Active and inactive are the calls of the source. The rule behind the calls is not given here.

What was measured:
in vivo [1] = conditions: Sprague-Dawley, rat, po, 10 mg/kg
[2] = Half life in Sprague-Dawley rat plasma; format: ADME, cell-free
[3] = Solubility of the compound in phosphate buffer saline at pH 2.0 after 20 mins by HPLC analysis; format: physicochemical
[4] = Solubility of the compound in phosphate buffer saline at pH 9.0 after 20 mins by HPLC analysis; format: physicochemical
[5] = Cmax in Sprague-Dawley rat at 50 mg/kg, po by LC-MS/MS analysis; format: ADME, organism-based; parameters: dose 50 mg/kg, route oral; conditions: in vivo
Liver microsome = assay: Prodrug activation in human liver microsomes assessed as formation of oseltamivir carboxylate per mg protein at 500 uM after 30 mins by HPLC analysis; conditions: 0.5 h
[6] = Solubility of the compound in phosphate buffer saline at pH 7.4 after 20 mins by HPLC analysis; format: physicochemical
[7] = Chemical stability of the compound in phosphate buffer saline at pH 2.0 to 9.0; format: physicochemical
[8] = AUC in Sprague-Dawley rat at 50 mg/kg, iv by LC-MS/MS analysis; format: ADME, organism-based; parameters: dose 50 mg/kg, route intravenous; conditions: plasma
Liver = assay: Prodrug activation in 9000g human liver supernatant assessed as formation of oseltamivir carboxylate per mg protein at 500 uM after 30 mins by HPLC analysis; format: tissue-based; conditions: 0.5 h
albumin = albumin (Homo sapiens, UniProt P02768); assay: Binding affinity to albumin (unknown origin) at 10 to 50 uM after 10 mins by HPLC analysis; format: ADME; conditions: read-out: PPB (converted)
[9] = Prodrug activation in human liver mitochondria assessed as formation of oseltamivir carboxylate per mg protein at 500 uM after 30 mins by HPLC analysis; conditions: 0.5 h
[10] = Prodrug activation in human liver cytosol assessed as formation of oseltamivir carboxylate per mg protein at 500 uM after 30 mins by HPLC analysis; format: tissue-based; conditions: 0.5 h
[11] = Tmax in Sprague-Dawley rat at 50 mg/kg, po by LC-MS/MS analysis; format: ADME, organism-based; parameters: dose 50 mg/kg, route oral; conditions: in vivo
in vivo [12] = conditions: Sprague-Dawley, rat, po, 50 mg/kg
[13] = Mean residence time in Sprague-Dawley rat at 50 mg/kg, po by LC-MS/MS analysis; format: ADME, organism-based; parameters: dose 50 mg/kg, route oral; conditions: in vivo
in vivo [14] = conditions: Sprague-Dawley, rat, po, 50 mg/kg; remark: listed apart in the source
Description: Half life in Sprague-Dawley rat at 50 mg/kg, po by LC-MS/MS analysis

[15] = Prodrug activation in pig liver microsomes assessed as formation of oseltamivir carboxylate per mg protein at 500 uM after 30 mins by HPLC analysis; parameters: species or system Sus scrofa, Microsome; conditions: 0.5 h
[16] = Prodrug activation in pig liver mitochondria assessed as formation of oseltamivir carboxylate per mg protein at 500 uM after 30 mins by HPLC analysis; parameters: species or system Sus scrofa; conditions: 0.5 h
[17] = Prodrug activation in pig liver assessed as carboxylesterase-mediated oseltamivir carboxylate formation per mg protein at 500 uM after 30 mins by HPLC analysis; format: tissue-based, Sus scrofa; conditions: 0.5 h
[18] = Prodrug activation in 9000g pig liver supernatant assessed as formation of oseltamivir carboxylate per mg protein at 500 uM after 30 mins by HPLC analysis; format: tissue-based, Sus scrofa; conditions: 0.5 h
Influenza A virus [19] = assay: Antiviral activity against Influenza A virus H1N1; format: functional, organism-based
Influenza A virus [20] = format: functional, organism-based; conditions: A/Jena/5258/2009(H1N1), MDCK
Influenza A virus [21] = assay: microbe, parasite or virus in culture; conditions: A/Jena/5258/2009(H1N1), MDCK, 48 h
Influenza A virus [22] = assay: Antiviral activity against Influenza A virus H3N2; format: functional, organism-based
MDCK = assay: Cytotoxicity against MDCK cells assessed as cell viability after 72 hrs; format: cell-based, Canis lupus familiaris; conditions: dog
Neuraminidase [23] = target: T1, Neuraminidase (Influenza A virus, UniProt B4URF0); parameters: species or system A/Hong Kong/68(H3N2)
Neuraminidase [24] = target: T1, Neuraminidase; parameters: species or system A/Sachsen/6/02(H3N2)
[25] = Plasma protein binding in human at 10 to 50 uM after 10 mins by HPLC analysis; format: ADME, cell-free; conditions: read-out: PPB (converted)
Neuraminidase [26] = target: T1, Neuraminidase; parameters: species or system A/Rheinland-Pfalz/3911/03(H3N2)
Neuraminidase [27] = target: T1, Neuraminidase; parameters: species or system A/Jena/5258/2009(H1N1)
Neuraminidase [28] = target: T1, Neuraminidase; parameters: species or system A/Berlin/10/04(H3N2)
[29] = Mean residence time in Sprague-Dawley rat at 10 mg/kg, iv by LC-MS/MS analysis; format: ADME, organism-based; parameters: dose 10 mg/kg, route intravenous; conditions: in vivo
in vivo [30] = conditions: Sprague-Dawley, rat, iv, 10 mg/kg
Description: Half life in Sprague-Dawley rat at 10 mg/kg, iv by LC-MS/MS analysis

Neuraminidase [31] = target: T1, Neuraminidase; parameters: species or system A/HH/1580/09(H1N1)
Rattus norvegicus = assay: Bioavailability in Sprague-Dawley rat at 10 mg/kg, iv by LC-MS/MS analysis; format: ADME, organism-based; conditions: in vivo
Neuraminidase [32] = target: T1, Neuraminidase; parameters: species or system A/Jena/5555/09(H1N1)
[33] = Prodrug activation in pig liver cytosol assessed as formation of oseltamivir carboxylate per mg protein at 500 uM after 30 mins by HPLC analysis; format: tissue-based, Sus scrofa; conditions: 0.5 h
[34] = AUC in Sprague-Dawley rat at 10 mg/kg, iv by LC-MS/MS analysis; format: ADME, organism-based; parameters: dose 10 mg/kg, route intravenous; conditions: plasma
[35] = Oral bioavailability in fasted mouse at 10 mg/kg by LC-MS/MS analysis; format: ADME, organism-based; conditions: in vivo
[36] = Oral bioavailability in fed mouse at 10 mg/kg by LC-MS/MS analysis; format: ADME, organism-based; conditions: in vivo

albumin, sequence (P02768 whole entry): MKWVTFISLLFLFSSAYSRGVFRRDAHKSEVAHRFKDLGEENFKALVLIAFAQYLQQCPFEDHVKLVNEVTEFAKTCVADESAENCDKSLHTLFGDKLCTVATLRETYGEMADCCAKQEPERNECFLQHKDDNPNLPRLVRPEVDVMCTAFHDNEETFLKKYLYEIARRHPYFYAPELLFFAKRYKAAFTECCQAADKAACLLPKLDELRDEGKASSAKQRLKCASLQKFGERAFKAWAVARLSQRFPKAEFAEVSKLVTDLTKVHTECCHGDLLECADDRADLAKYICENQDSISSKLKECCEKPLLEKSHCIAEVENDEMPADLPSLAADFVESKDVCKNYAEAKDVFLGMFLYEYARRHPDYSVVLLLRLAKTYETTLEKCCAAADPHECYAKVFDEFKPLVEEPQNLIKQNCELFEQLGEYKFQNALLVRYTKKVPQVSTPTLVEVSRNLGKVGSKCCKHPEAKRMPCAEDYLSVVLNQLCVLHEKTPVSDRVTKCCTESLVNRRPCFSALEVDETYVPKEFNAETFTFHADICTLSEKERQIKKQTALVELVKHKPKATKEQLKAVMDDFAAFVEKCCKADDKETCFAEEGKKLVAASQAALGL
T1 sequence (B4URF0 whole entry): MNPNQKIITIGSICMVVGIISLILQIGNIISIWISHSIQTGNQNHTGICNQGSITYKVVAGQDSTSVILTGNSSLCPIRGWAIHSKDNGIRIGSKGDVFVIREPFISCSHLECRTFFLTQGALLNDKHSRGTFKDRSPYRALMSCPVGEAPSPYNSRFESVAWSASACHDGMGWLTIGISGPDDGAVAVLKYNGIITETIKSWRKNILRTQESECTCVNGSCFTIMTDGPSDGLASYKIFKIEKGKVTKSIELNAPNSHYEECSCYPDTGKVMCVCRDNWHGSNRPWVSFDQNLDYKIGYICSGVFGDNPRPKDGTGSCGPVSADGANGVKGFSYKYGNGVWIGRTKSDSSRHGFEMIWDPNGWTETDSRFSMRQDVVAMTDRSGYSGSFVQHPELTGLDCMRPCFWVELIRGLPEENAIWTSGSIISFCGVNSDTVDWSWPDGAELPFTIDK

SMILES	solubility at 20 min [3] [mM]	solubility at 20 min [4] [mM]	Cmax [5] [ng/mL]	Drug metabolism (Liver microsome) [nmol/min/mg]	solubility at 20 min [6] [mM]	Stability [7]	AUC [8] [ng·h/mL]	Drug metabolism (Liver) [nmol/min/mg]	fraction unbound at 10 min, up to 50 µM (albumin)	Drug metabolism [9] [nmol/min/mg]	Tmax [11] [h]	bioavailability (in vivo [12]) [%]	MRT [13] [h]	half-life (in vivo [14]) [h]	Drug metabolism [16] [nmol/min/mg]	IC50 (Influenza A virus [19]) [nM]	EC50 (Influenza A virus [21]) [nM]	IC50 (Influenza A virus [22]) [nM]	IC (MDCK)	other results
CCOC(=O)C1=C[C@@H](OC(CC)CC)[C@H](NC(C)=O)[C@@H](N)C1 [OSELTAMIVIR]	–	–	–	–	–	–	–	–	–	–	–	–	–	–	–	–	–	–	–	bioavailability (in vivo [1]): 36%; half-life [2]: 0.733 h
CCOC(=O)C1=C[C@@H](OC(CC)CC)[C@H](NC(C)=O)[C@@H](NC(N)=NO)C1	> 50	> 50	100	1.76	> 50	Stable	317	0.76	0.625	1.74	1.52	1.5	2.8	1.15	–	–	–	–	–	Drug metabolism [10]: 0.28 nmol/min/mg
CCOC(=O)C1=C[C@@H](OC(CC)CC)[C@H](NC(C)=O)[C@@H](NC(=N)N)C1	> 50	> 50	100	1.06	> 50	Stable	217	0.32	0.699	0.79	1	1.3	2.62	1.45	0.21	–	–	–	–	bioavailability (in vivo [1]): 2.1%; Drug metabolism [15]: 0.22 nmol/min/mg; Drug metabolism [17]: 1.35 nmol/min/mg; Drug metabolism [10]: 0.5 nmol/min/mg; Drug metabolism [18]: 0.22 nmol/min/mg
CCC(CC)O[C@@H]1C=C(C(=O)O)C[C@H](N)[C@H]1NC(C)=O [OSELTAMIVIR CARBOXYLATE]	–	–	–	–	–	–	–	–	–	–	–	–	–	–	–	0.12	5210	0.24	<= 200 ug ml-1	Activity (Influenza A virus [20]): Active
CCC(CC)O[C@@H]1C=C(C(=O)O)C[C@H](NC(C)=N)[C@H]1NC(C)=O	> 50	> 50	600	–	> 50	Stable	1880	–	0.978	–	0.733	3.9	2.1	1.13	–	0.4	1900	1.82	0.53 mM	IC50 (Neuraminidase [23]): 1.87 nM; IC50 (Neuraminidase [24]): 2.3 nM; fraction unbound at 10 min, up to 50 µM [25]: 0.963; IC50 (Neuraminidase [26]): 1.79 nM; IC50 (Neuraminidase [27]): 0.45 nM; IC50 (Neuraminidase [28]): 1.3 nM; MRT [29]: 0.533 h; half-life (in vivo [30]): 0.567 h; IC50 (Neuraminidase [31]): 0.3 nM; F (Rattus norvegicus): 100%; IC50 (Neuraminidase [32]): 0.44 nM
CC(=O)N[C@H]1[C@H]([C@H](O)[C@H](O)CO)OC(C(=O)O)=C[C@@H]1NC(=N)N [ZANAMIVIR]	–	–	–	–	–	–	–	–	–	–	–	–	–	–	–	–	6560	–	–	Activity (Influenza A virus [20]): Active
CC(=O)N[C@H]1[C@H]([C@H](O)[C@H](O)CO)OC(C(=O)O)=C[C@@H]1N=C(N)N [ZANAMIVIR]	–	–	–	–	–	–	–	–	–	–	–	–	–	–	–	–	–	–	<= 200 ug ml-1	–
Br.CCOC(=O)C1=C[C@@H](OC(CC)CC)[C@H](NC(C)=O)[C@@H](NC(C)=N)C1	> 50	> 50	200	0.64	> 50	Stable	283	0.2	0.652	0.56	0.517	0.8	1.62	0.7	0.15	–	–	–	–	Drug metabolism [15]: 0.3 nmol/min/mg; Drug metabolism [33]: 0.66 nmol/min; Drug metabolism [17]: 0.83 nmol/min/mg; Drug metabolism [18]: 0.42 nmol/min/mg
CCOC(=O)C1=C[C@@H](OC(CC)CC)[C@H](NC(C)=O)[C@@H](N/C(C)=N/O)C1	> 50	23 (≈ 8.5 mg/mL)	3100	2.3	23 (≈ 8.5 mg/mL)	Stable	13300	0.56	0.733	0.29	1.37	31.4	3.43	1.85	0.51	–	–	–	–	Drug metabolism [33]: 0.4 nmol/min
CCC(CC)O[C@@H]1C=C(C(=O)O)C[C@H](NC(=N)N)[C@H]1NC(C)=O	–	–	300	–	–	Stable	450	–	0.996	–	1.72	1.9	2.2	1.22	–	0.22	3120	0.8	0.55 mM	fraction unbound at 10 min, up to 50 µM [25]: 0.914; AUC [34]: 4800 ng·h/mL; bioavailability [35]: 48%; MRT [29]: 0.983 h; half-life (in vivo [30]): 1.57 h; F (Rattus norvegicus): 100%; bioavailability [36]: 23%
